Measurements reported in patent publication US5407815A, “R-(-)-1-(5-hydroxyhexyl)-3-methyl-7-propylxanthine, a process for its preparation and pharmaceuticals containing this compound” (Hoechst Aktiengesellschaft, priority 1989, dated 1995).

Key:
[1] = system: regional cerebral blood flow; assay: Regional cerebral blood flow of the cat, heat conductivity technique (heat transport number λ); format: in vivo; details: for duration of action as the half life t1/2 / Δλ% (mean percentage change of the heat transport number): anesthetized cat, 25 mg/kg intraduodenally; for Δλ% (mean percentage change of the heat transport number): suspension in 1% carboxymethylcellulose, n = 6 to 11; for conversion factor (f), based on Δλ%=1 for the racemate: intraduodenal, 25 mg/kg; for cerebral blood flow-stimulating action relative to racemate: racemate made equal to 1
Description: The action of compound 1 according to the invention on the regional cerebral blood flow was investigated in comparison with the racemate 2 and the S-(+)-enantiomer 3 with the aid of the heat conductivity technique according to F. A. Gibbs (Proc. Soc. exp. Biol. (N.Y.) 31 (1933), pp. 141 et seq.), H. Hensel (Naturwissenschaften 43 (1956), pp. 477 et seq.) and E. Betz (Acta Neurol. Scand. Suppl. 14 (1965), pp. 29-37) in cats of both sexes under sodium pentobarbital anesthesia (35 mg/kg i.p.). In this method, with the aid of a heat conductivity probe applied to the surface of the brain in the region of the Gyrus marginalis frontalis, the transport of heat from a point of heating to an adjacent temperature-measuring site in the probe, which is directly proportional to the level of the cerebral blood flow, is determined. The mean percentage change in the heat transport number λ after administration of the preparation is used as a measure of the increase in blood flow.
The compounds were administered intraduodenally as a suspension in 1% strength aqueous carboxymethylcellulose. The dose was 25 mg of test substance per kg of body weight. 6 to 11 individual experiments were carried out for each test preparation and the mean percentage change in the heat transport number (Δλ%) was determined from the measurement data obtained.
The melting points m.p., the enantiomeric purities e.e. (enantiomeric excess), the number of measurements n, the mean percentage change (Δλ%) of the heat transport number as a measure of the potency, the conversion factors f, based on Δλ%=1 for the racemate, and the duration of action as the half life t1/2 (min) for R-(-)-1-(5-hydroxyhexyl)-3-methyl-7-propylxanthine (1), the corresponding enantiomer S-(+)-1-(5-hydroxyhexyl)-3-methyl-7-propylxanthine (3) and the racemate (2) of the two compounds is indicated in Table 1.

cerebral blood flow = details: known from DE-C-2,366,527; cited from earlier work

Structure (SMILES) | duration of action as the half life t1/2 [1] [h] | Δλ% (mean percentage change of the heat transport number) [1] | conversion factor (f), based on Δλ%=1 for the racemate [1] | cerebral blood flow-stimulating action relative to racemate [1] | cerebral blood flow-stimulating action of R-(-)-enantiomer relative to S-(+)-antipode ([1]; ratio R-(-) to S-(+)) | duration of action of R-(-)-compound relative to S-(+)-compound ([1]; ratio R-(-) to S-(+)) | cerebral blood flow-stimulating action (qualitative) (cerebral blood flow)
CCCn1cnc2c1c(=O)n(CCCC[C@@H](C)O)c(=O)n2C [Compound 1, R-(-)-1-(5-hydroxyhexyl)-3-methyl-7-propylxanthine] | 1.67 | +45% | 1.88 | about 2 | about three | about three | 
CCCn1cnc2c1c(=O)n(CCCCC(C)O)c(=O)n2C (racemic) [Compound 2, 1-(5-hydroxyhexyl)-3-methyl-7-propylxanthine] | 1.67 | +24% | 1.00 | 1 |  |  | cerebral blood flow-stimulating action
CCCn1cnc2c1c(=O)n(CCCC[C@H](C)O)c(=O)n2C [Compound 3, S-(+)-1-(5-hydroxyhexyl)-3-methyl-7-propylxanthine] | 0.6 | +16% | 0.67 | about 0.65 |  |  | 
